Earlier results on 2 molecules are cited in patent US20240384361A1, “LONG-TERM SURROGATE VIRUS ASSAYS AND METHODS” (priority 2021, published 2024).

The subject of data set [1] is ASFV.
Data set [2] relates to ASFV. This is another data set of the same source.

Take `O=C(O)CC(O)(CC(=O)O)C(=O)O` [citric acid]: the “virus inactivation on wood surfaces” value in the data set on ASFV [1] is “completely inactivated”.
`CCCCCCCCCCCC(=O)OCC(O)CO` (centres unmarked) [glycerol monolaurate]: the “ASFV infectivity in feed matrices” value in the data set with ASFV [2] is listed as “reduce ASFV infectivity”.
